Experimental findings from patent US20220257532A1 (priority 2017, published 2022) are described below.

Structures are written as SMILES. “Also recorded” adds a separate entry of the source. Like-named read-outs stand apart in the source and are kept apart here.

Series [1] deals with T1, butyrylcholinesterase (BChE, EC3.1.1.8) (Equus caballus, UniProt P81908).
T1 construct: horse serum butyrylcholinesterase (BChE, EC3.1.1.8); purchased Sigma-Aldrich Co. (St. Louis, Mo., USA); host or cells: horse serum
T1 sequence (P81908 whole entry): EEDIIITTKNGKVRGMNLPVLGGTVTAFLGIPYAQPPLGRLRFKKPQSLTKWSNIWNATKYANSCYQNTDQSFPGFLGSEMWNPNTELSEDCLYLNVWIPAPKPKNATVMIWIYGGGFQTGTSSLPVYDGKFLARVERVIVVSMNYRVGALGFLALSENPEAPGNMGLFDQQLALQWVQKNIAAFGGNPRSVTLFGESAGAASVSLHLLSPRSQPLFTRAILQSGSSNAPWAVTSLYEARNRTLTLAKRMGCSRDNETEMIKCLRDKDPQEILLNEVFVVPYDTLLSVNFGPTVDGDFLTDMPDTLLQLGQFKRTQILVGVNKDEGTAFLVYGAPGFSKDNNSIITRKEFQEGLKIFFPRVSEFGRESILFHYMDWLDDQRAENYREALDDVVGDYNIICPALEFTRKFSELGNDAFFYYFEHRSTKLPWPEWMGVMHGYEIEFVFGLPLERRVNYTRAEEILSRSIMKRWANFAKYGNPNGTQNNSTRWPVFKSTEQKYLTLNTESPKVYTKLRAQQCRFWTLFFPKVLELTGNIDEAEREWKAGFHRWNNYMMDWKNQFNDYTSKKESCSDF
The series can be described thus: In vitro cholinesterase activity assay (Ellman) and enzyme kinetics, BChE. Format: biochemical. To be noted: for BChE inhibition / IC50 rank, in words: among the compounds tested; for SI selectivity index (BChE/AChE): ratio of IC50 BChE/AChE; for Inhibition type Butyrylcholinesterase: Dixon plot and Lineweaver plot. The method, then:
(§1) The reaction started with the addition of 10 μL of DTNB and 10 μL of Ach or Bch.
(§2) Briefly, the basis for this assay is the hydrolysis of acetylthiocholine by acetylcholinesterase, producing thiocholine that reacts with DTNB. […] Degrees of inhibition were calculated according to […] wherein E and S represent enzyme activities in the presence and absence of a test sample, respectively.
(§3) The compounds of Table 1 were evaluated for anti-Alzheimer activity. In this regard, inhibitory activity against AChE (acetylcholinesterase) and BChE (butyrylcholinesterase), which lyse acetylcholine in the central nervous system, was measured according to the Experimental Method to calculate IC(inhibition concentrations)50 values.
Background: DTNB colorimetry detects thiols as they appear.

Series [2] addresses BACE1 (β-secretase, recombinant human enzyme) (Homo sapiens, UniProt P56817). Put plainly: biochemical. Format: biochemical. The settings on record: for Inhibition type BACE1: Dixon plot and Lineweaver plot; for BACE1 IC50 compared with quercetin, in words: positive control quercetin. How it is done: A BACE1 fluorescence resonance energy transfer (FRET) assay kit (β-secretase, recombinant human enzyme) was purchased from Pan Vera Co. (Madison, Wis., USA).
BACE1 is an enzyme promotive of the production of β-amyloid, which destroys neurons. In order to examine the effects on the compounds of Table 1 on the activity of BACE1, IC(inhibition concentrations)50 values were determined by measuring BACE1 activity in vitro according to Experimental Methods.

The target in series [3] is T2, acetylcholinesterase (AChE, EC3.1.1.7) (Electrophorus electricus, UniProt O42275).
T2 construct: purchased Sigma-Aldrich Co. (St. Louis, Mo., USA)
T2 sequence (O42275 24-633): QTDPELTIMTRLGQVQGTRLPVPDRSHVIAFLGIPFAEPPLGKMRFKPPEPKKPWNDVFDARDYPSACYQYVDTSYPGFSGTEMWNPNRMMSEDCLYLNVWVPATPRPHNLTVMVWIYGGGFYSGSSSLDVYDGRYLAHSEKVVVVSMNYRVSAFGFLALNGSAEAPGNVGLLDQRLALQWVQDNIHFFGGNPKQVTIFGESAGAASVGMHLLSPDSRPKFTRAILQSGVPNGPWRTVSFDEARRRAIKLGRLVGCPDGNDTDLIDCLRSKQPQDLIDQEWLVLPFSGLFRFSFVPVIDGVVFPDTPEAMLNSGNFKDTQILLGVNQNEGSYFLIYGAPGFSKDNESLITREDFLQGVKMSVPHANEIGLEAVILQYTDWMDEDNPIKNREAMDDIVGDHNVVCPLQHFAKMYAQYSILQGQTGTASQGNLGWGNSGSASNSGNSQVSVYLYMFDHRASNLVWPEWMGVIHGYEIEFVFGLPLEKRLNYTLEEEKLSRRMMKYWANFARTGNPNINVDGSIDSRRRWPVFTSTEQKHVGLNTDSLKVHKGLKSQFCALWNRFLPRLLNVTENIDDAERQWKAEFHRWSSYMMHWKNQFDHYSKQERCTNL
Put plainly: In vitro cholinesterase activity assay (Ellman) and enzyme kinetics, AChE. Format: biochemical. To be noted: for AChE inhibition / IC50 rank, in words: among the compounds tested; for Inhibition type Acetylcholinesterase: Dixon plot and Lineweaver plot. The method, then:
as §1, §2, §3

The subject of series [4] is NIH3T3 (mouse embryo fibroblast cell-line). Put plainly: MTT cytotoxicity assay, normal cell line. Type of series: cell-based. To be noted: conclusion from LD50, MTT. The method, then: (§4) Mouse fibroblast cell line NIH3T3 and mouse melanoma cell line B16F10 were separately seeded at a density of 1×10^3 cells/well into 96-well plates and grown in DMEM supplemented with 10% FBS (fetal bovine serum) at 37° C. in a 5% CO2 atmosphere. The cells in each cell were incubated for 24 hours with predetermined concentrations of each of the compounds (pterosin A, pterosin B, pterosin C, pterosin D, pterosin P, pterosin Z, pteroside A, pteroside A2, pteroside B, pteroside C isomers, pteroside D, pteroside N, pteroside P, and pteroside Z) and then for 2 hours with 100 μL of MTT (0.5 mg/ml PBS). After aspiration of the medium from each well, incubation was conducted for 10 min with 100 μL of DMSO. Absorbance at 570 nm was read using a microplate reader (SPCTRA MAX 340PC, Molecular Devices, USA). Absorbance is an index accounting for a number of viable cells and was used to calculate cell proliferation rates according to the following formula. All experiments were conducted three times for reproducibility.
(§5) Cell proliferation rate (%)=OD550 (sample)/OD550 (control)
(§6) The normal cell line NIH3T3 (mouse embryo fibroblast cell-line) and the cancerous cell line B16F10 (mouse melanoma cell-line) were separately grown in 96-well plates and incubated for 48 hours with predetermined concentrations of each of the compounds. After additional incubation with MTT, absorbance at 550 nm was read using a microplate reader. Absorbance is an index accounting for a number of viable cells and was used to calculate cell proliferation rates according to the following formula. All experiments were conducted three times for reproducibility.
(§7) Cell proliferation rate (%)=OD550(sample)/OD550(control)
(§8) Then, LD50 (Lethal Dose 50) values were calculated on the basis of changes in the cell proliferation rate.
(Tetrazolium dyes change colour on reduction, which living cells bring about.)

Series [5] deals with B16F10 (mouse melanoma cell-line). The series can be described thus: MTT cytotoxicity assay, cancerous cell line. Format: cell-based. To be noted: for LD50 Cancer cell 816F10: MTT, incubated for 48 hours with compound; for toxicity to cancerous cells, in words: conclusion from LD50, MTT. The method, then: as §4, §5, §6, §7, §8
Where [6] appears, read: concentrations up to 125 μM, read-out: IC50 Butyrylcholine esterase Mean ± SEM.
The mark [7] stands for this setting: concentrations up to 125 μM, read-out: IC50 Acetylcholine esterase Mean ± SEM.

Chain of BACE1 (β-secretase, recombinant human enzyme) (P56817 46-501): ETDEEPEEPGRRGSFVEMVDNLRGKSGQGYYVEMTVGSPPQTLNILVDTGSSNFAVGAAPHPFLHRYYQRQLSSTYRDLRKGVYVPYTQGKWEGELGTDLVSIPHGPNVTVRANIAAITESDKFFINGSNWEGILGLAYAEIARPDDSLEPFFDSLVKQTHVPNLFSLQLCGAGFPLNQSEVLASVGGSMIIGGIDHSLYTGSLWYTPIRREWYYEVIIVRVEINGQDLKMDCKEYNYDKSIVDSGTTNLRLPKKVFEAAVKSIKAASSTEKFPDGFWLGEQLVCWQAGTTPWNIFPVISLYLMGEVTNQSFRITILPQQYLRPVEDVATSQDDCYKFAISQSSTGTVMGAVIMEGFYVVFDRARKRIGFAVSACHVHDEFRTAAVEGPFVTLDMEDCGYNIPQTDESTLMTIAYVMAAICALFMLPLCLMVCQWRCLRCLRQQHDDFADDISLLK

For `Cc1cc2c(c(C)c1CCO[C@@H]1OC(CO)[C@@H](O)[C@H](O)C1O)C(=O)[C@](C)(CO)C2` (stereo partly drawn) [Compound 12, (2S)-pteroside A], the half-maximal inhibitory concentration (IC50) (as a rule, the concentration that gives 50% inhibition) in series [1] (setting [6]) came out at 199 ± 0.25 µM.
Turning to `Cc1cc2c(c(C)c1CCO[C@@H]1OC(CO)[C@@H](O)[C@H](O)C1O)C(=O)[C@H](C)[C@H]2O` (stereo partly drawn) [Compound 16, (2R,3R)-pteroside C], in series [1], the “BChE inhibition / IC50 rank, in words” value is “lowest” and the “SI selectivity index (BChE/AChE)” value worked out at 1.4. Besides, in series [2], the “Inhibition type BACE1” value is recorded as “mixed” and the “BACE1 IC50 compared with quercetin, in words” value is recorded as “lower than or similar to that of quercetin”. Also, the “AChE inhibition / IC50 rank, in words” value in series [3] is “excellent”.
Consider `Cc1cc2c(c(C)c1CCO[C@@H]1OC(CO)[C@@H](O)[C@H](O)C1O)C(=O)[C@@H](C)[C@H]2O` (stereo partly drawn) [Compound 15, (2S,3R)-pteroside C], for which the IC50 in series [1] (setting [6]) is 12 ± 0.14 µM; in series [3] (setting [7]), 9.57 ± 0.32 µM. Further, the “SI selectivity index (BChE/AChE)” value in series [1] was 1.4.
With `Cc1cc2c(c(C)c1CCO[C@@H]1OC(CO)[C@@H](O)[C@H](O)C1O)C(=O)C(C)(C)[C@H]2O` (stereo partly drawn) [Compound 17, (3S)-pteroside D], the “SI selectivity index (BChE/AChE)” value in series [1] is reported as 0.70. In addition, in series [2], the “Inhibition type BACE1” value is listed as “mixed” and the “BACE1 IC50 compared with quercetin, in words” value is on record as “lower than or similar to that of quercetin”.
As to `Cc1cc2c(c(C)c1CCO)C(=O)C(C)(C)C2` [Compound 11, pterosin Z], the “SI selectivity index (BChE/AChE)” value in series [1] stood at 1.7. Also, the concentration for half-maximal inhibition (IC50) in series [2] came out at 48.7 ± 3.2 µM. In series [4], the “toxicity to normal cells, in words” value was “slightly toxic”. For the same compound, in series [5], the “LD50 Cancer cell 816F10” value stood at 618 ± 71 µM and the “toxicity to cancerous cells, in words” value was “slightly toxic”.
Turning to `Cc1cc2c(c(C)c1CCO)C(=O)[C@H](C)C2` [Compound 4, (2R)-pterosin B], in series [1], the “Inhibition type Butyrylcholinesterase” value is on record as “noncompetitive” and the “SI selectivity index (BChE/AChE)” value was 3.0. Also, in series [2], the IC50 came to 18 ± 2 µM and the “Inhibition type BACE1” value is “noncompetitive”. In series [3], the “Inhibition type Acetylcholinesterase” value is “mixed” and the “AChE inhibition / IC50 rank, in words” value was “excellent”.
Turning to `Cc1cc2c(c(C)c1CCO[C@@H]1OC(CO)[C@@H](O)[C@H](O)C1O)C(=O)C(C)(C)C2` (stereo partly drawn) [Compound 20, pteroside Z], in series [1], the “BChE inhibition / IC50 rank, in words” value is recorded as “excellent” and the “SI selectivity index (BChE/AChE)” value is on record as 0.24.
On to `Cc1c(CCO)c(CO)cc2c1C(=O)[C@@H](C)C2` [Compound 10, (2S)-pterosin P], for which the “SI selectivity index (BChE/AChE)” value in series [1] is reported as 3.1. In addition, the half-inhibitory concentration (IC50) in series [2] is 40.8 ± 4.1 µM.
On to `Cc1cc2c(c(C)c1CCO)C(=O)[C@H](C)[C@H]2O` [Compound 7, (2R,3R)-pterosin C], for which, in series [1], the “Inhibition type Butyrylcholinesterase” value is given as “mixed” and the “SI selectivity index (BChE/AChE)” value came to 0.88. In series [2], the IC50 was 15.9 ± 3.5 µM; the “Inhibition type BACE1” value is on record as “mixed”; the “BACE1 IC50 compared with quercetin, in words” value is given as “lower than or similar to that of quercetin”. In series [3], the “Inhibition type Acetylcholinesterase” value is “noncompetitive”.
`CC(=O)C1(/C(C)=C\C2=CC(=O)C(C)C2)CC1` (stereo not drawn) [Compound 2, 3-[2-(1-Acetylcyclopropyl)-1-propenyl)-5-methyl-2-cyclopenten-1-one]: in series [1], the IC50 is 72.9 ± 0.73 µM and the “SI selectivity index (BChE/AChE)” value was 0.83. In series [2], the IC50 was 19.4 ± 1.7 µM; the “Inhibition type BACE1” value is listed as “mixed type”; the “BACE1 IC50 compared with quercetin, in words” value is listed as “lower than or similar to that of quercetin”. Moreover, in series [3], the concentration for half-maximal inhibition (IC50) amounted to 87.7 ± 1.6 µM and the “AChE inhibition / IC50 rank, in words” value is “highest”. For the same compound, in series [4], the “toxicity to normal cells, in words” value is given as “almost non-toxic”. Moreover, in series [4] (listed as compound of Chemical Formula 2), the “toxicity to normal cells, in words” value is “non-toxic”. In series [5], the “LD50 Cancer cell 816F10” value is 688 µM and the “toxicity to cancerous cells, in words” value is recorded as “slightly toxic”.
Turning to `Cc1cc2c(c(C)c1CCO)C(=O)[C@](C)(CO)C2` [Compound 3, (2S)-pterosin A], the IC50 in series [1] (setting [6]) was 57.3 ± 3.3 µM; in series [2], 64.9 ± 5.1 µM; in series [3] (setting [7]) it was 88.7 ± 2.6 µM. Moreover, the “SI selectivity index (BChE/AChE)” value in series [1] was found to be 12. In series [5], the “LD50 Cancer cell 816F10” value was determined as 522 ± 25 µM. Moreover, the “toxicity to cancerous cells, in words” value in series [5] is “slight cytotoxicity”.
As to `Cc1c(CCO[C@@H]2OC(CO)[C@@H](O)[C@H](O)C2O)c(CO)cc2c1C(=O)[C@@H](C)C2` (stereo partly drawn) [Compound 19, (2S)-pteroside P], the “SI selectivity index (BChE/AChE)” value in series [1] was 0.57.
As to `Cc1cc2c(c(C)c1CCO)C(=O)[C@@H](C)[C@H]2O` [Compound 8, (2S,3R)-pterosin C], in series [1], the “Inhibition type Butyrylcholinesterase” value was “noncompetitive” and the “SI selectivity index (BChE/AChE)” value is reported as 3.5. Further, in series [2], the 50% inhibitory concentration (IC50) is 14.1 ± 1.6 µM; the “Inhibition type BACE1” value was “noncompetitive”; the “BACE1 IC50 compared with quercetin, in words” value is given as “lower than or similar to that of quercetin”. Besides, the “Inhibition type Acetylcholinesterase” value in series [3] is “mixed”.
As to `Cc1cc2c(c(C)c1CCO)C(=O)C(C)(C)[C@@H]2O` [Compound 9, (3R)-Pterosin D], in series [1], the IC50 was over 12 µM and the “BChE inhibition / IC50 rank, in words” value is listed as “highest”. Also, the IC50 in series [2] is 56.3 ± 3.9 µM.
Turning to `Cc1cc2c(c(C)c1CCO[C@@H]1OC(CO)[C@@H](O)[C@H](O)C1O)C(=O)[C@H](C)C2` (stereo partly drawn) [Compound 14, (2R)-pteroside B], in series [1], the “Inhibition type Butyrylcholinesterase” value is “mixed” and the “BChE inhibition / IC50 rank, in words” value is “excellent”. Moreover, in series [1] (setting [6]), the IC50 was determined as 17 µM. The “Inhibition type BACE1” value in series [2] is “noncompetitive”. Also, in series [3], the “Inhibition type Acetylcholinesterase” value is reported as “mixed” and the “AChE inhibition / IC50 rank, in words” value is listed as “lowest; also recorded: excellent”.
For the compound `Cc1cc2c(c(C)c1CCO)C(=O)[C@@H](C)[C@@H]2O` [Compound 6, (2S,3S)-pterosin C], the “BChE inhibition / IC50 rank, in words” value in series [1] was “excellent”. In series [2], the “BACE1 IC50 compared with quercetin, in words” value was “lower than or similar to that of quercetin”.
With `Cc1cc2c(c(C)c1CCO[C@@H]1OC(CO)[C@@H](O)[C@H](O)C1O)C(=O)[C@](C)(O)C2` (single isomer, unassigned; (-)) [Compound 18, (−)-pteroside N], in series [1], the “SI selectivity index (BChE/AChE)” value is given as 1.7.
`Cc1cc2c(c(C)c1CCO)C(=O)[C@](C)(COC1O[C@H](CO)[C@@H](O)[C@H](O)[C@H]1O)C2` (stereo partly drawn) [Compound 13, (2S)-pteroside A2]: in series [1], the 50% inhibitory concentration (IC50) was found to be 119 ± 2.5 µM and the “SI selectivity index (BChE/AChE)” value is given as 3.0. Also, the IC50 in series [2] was determined as 94.4 ± 4.5 µM.
